According to publication PMC10571957, “αV-Integrin-Dependent Inhibition of Glioblastoma Cell Migration, Invasion and Vasculogenic Mimicry by the uPAcyclin Decapeptide” (Cancers, 2023):

Experiments:
U87-MG cells [1] = assay: Boyden chamber migration (chemotaxis), U87-MG; assay type: cell-based, human; conditions: for % of the basal: sheet all data, Average all expts; for % of basal, average / % of basal / cells n°/field / % of basal (T-TEST list): sheet data scrambled; for % of basal, average: Average 2 expts
Method: The migration and invasion assays were performed using Boyden chambers and 8 µm pore size PVP-free filters coated with 50 µg/mL of collagen type VI (Sigma), as previously described. For the invasion assays, collagen-coated filters were further coated with 50 µg/mL Matrigel^TM (Sigma). Briefly, 11 × 10^4 U87-MG, 4 × 10^4 U251-MG, or 4 × 10^4 U138-MG/sample were pre-treated for 40 min at 37 °C with the indicated effectors. Then, the cells were allowed to migrate for 3 h or to invade for 5 h at 37 °C toward 5% FBS in DMEM/0.1% BSA. At the end of both assays, the cells on the lower filter surface were fixed, stained with haematoxylin, and counted under an optical microscope (Zeiss Axiophot, Carl Zeiss, Milan, Italy) at 20× magnification. The migration and invasion experiments were conducted in triplicate for U87-MG and in duplicate for U251-MG and U138-MG. The migrated or invaded cells were reported as percentage of basal migration or invasion in the presence of DMEM/0.1% BSA, taken as 100%, and analyzed as reported in Section 2.11.
Figure 3 Inhibition of U87-MG, U251-MG, and U138-MG GBM cellular migration by uPAcyclin. Quantitative analysis of U87-MG (A), U251-MG (B), and U138-MG (C) directional migration. A total of 11 × 10^4 U87-MG/sample or 4 × 10^4 U251-MG or U138-MG/sample were pre-treated for 40 min at 37 °C with uPAcyclin or S-peptide at the indicated concentrations, anti-αV polyclonal (anti-αV Pclonal) or monoclonal (anti-αV MoAb) antibody, or anti-GAPDH, and anti-α2 monoclonal antibody (anti-α2 MoAb), and then assayed in Boyden chambers at 37 °C, either for basal (BSA) or directional 5% FBS-dependent migration for 3 h at 37 °C. At the end of incubation, the filters were processed as described in Methods. Basal migration was taken as 100% and all values were calculated relative to that (* p-value < 0.05; ** p-value < 0.005; *** p-value < 0.001).

U87-MG cells [2] = assay: Vasculogenic mimicry (tube formation on Geltrex), U87-MG; assay type: cell-based, human; conditions: for reduction in branching points: 24 h, Geltrex
Method: The tube formation assay was performed in 96-well plates pre-coated with 50 µL/well of Geltrex^TM (Thermofisher, Scientific, Waltham, MA, USA), and polymerized for 30 min at 37 °C. Briefly, 3 × 10^4 U87-MG, 1.5 × 10^4 U251, and 1 × 10^4 C6 cells/100µL/well were plated onto Geltrex^TM and monitored at 37 °C for the indicated times. The specific effectors were included at time 0. The formation of vascular-like structures by Geltrex^TM-plated U87-MG and U251-MG cells was monitored for 24 h, whereas C6 cells were tested for 16 h. The evaluation of the branching point number, defined as the intersection of at least 3 tubes [24], was performed using the Inverted Microscope DMI Leica 6000 for the U87-MG and U251-MG cells and the Inverted Microscope Axiovert 25 for the C6 cells. At the indicated times, the number of “branching points” was assessed in 4/5 random fields using the ImageJ 1.52a Software.
Figure 6 Vascular mimicry formation by U87-MG and effect of uPAcyclin. (A) Representative images of U87-MG cells pre-treated or not (untreated) for 40 min at 37 °C with uPAcyclin (1 nM and 100 nM) and then plated onto Geltrex^TM in multiwell-96 (3 × 10^4/well). As a control, cells were grown in the presence of DMEM/10% FBS (No matrix) or with Geltrex^TM (Untreated, Untd). Images are taken at 24 h using the Inverted Microscope DMI Leica 6000 with 50× total magnification, scale bar: 75 µm. (B) The quantitation of branching points, defined as the intersection of at least three tubes [24], was performed at 4, 8, and 24 h either in control cells and cells pre-treated for 40 min at 37 °C with 10 pM, 1 nM, and 100 nM uPAcyclin before plating onto Geltrex^TM. (C) U87-MG cells were pre-treated with uPAcyclin or with S-uPAcyclin, at the indicated concentrations, plated onto Geltrex^TM and, 24 h later, the number of branching points was evaluated and reported in the histogram (* p-value < 0.05; ** p-value < 0.005; *** p-value < 0.001).

[3] = 10pM, Expt n°2, replicate 1 (as labelled)
[4] = 10pM, Expt n°2, replicate 2 (as labelled)
[5] = 1nM, Expt n°2, replicate 1 (as labelled)
[6] = 1nM, Expt n°2, replicate 2 (as labelled)

## Ac-K^1P[ESPPEELK^10]-NH2 (sidechain bridge or staple) [uPAcyclin]
U87-MG cells [1]; 1 nM, U87-MG, 5% FBS, 3 h
  inhibition of migration: 70–80%
U87-MG cells [1]; 100 nM, U87-MG, 5% FBS, 3 h
  migration, in words: below background levels
U87-MG cells [1]; 10pM
  % of the basal: 168%
  % of basal, average: 143.5%
U87-MG cells [1]; 1nM
  % of the basal: 119%
  % of basal, average: 131%
U87-MG cells [1]; 100nM
  % of the basal: 87%
U87-MG cells [1]; 10pM, Expt n°1, replicate 1
  % of basal: 133%
  cells n°/field: 14 cells n°/field
U87-MG cells [1]; 10pM, Expt n°1, replicate 2
  % of basal: 143%
  cells n°/field: 15 cells n°/field
U87-MG cells [1]; [3]
  % of basal: 152%
  cells n°/field: 16 cells n°/field
U87-MG cells [1]; [4]
  % of basal: 133%
  cells n°/field: 14 cells n°/field
U87-MG cells [1]; 10 pM, T-TEST list value 1
  % of basal (T-TEST list): 143
U87-MG cells [1]; 10 pM, T-TEST list value 2
  % of basal (T-TEST list): 152
U87-MG cells [1]; 10 pM, T-TEST list value 3
  % of basal (T-TEST list): 133
U87-MG cells [1]; 10 pM, T-TEST list value 4
  % of basal (T-TEST list): 143
U87-MG cells [1]; 1nM, Expt n°1, replicate 1
  % of basal: 124%
  cells n°/field: 13 cells n°/field
U87-MG cells [1]; 1nM, Expt n°1, replicate 2
  % of basal: 124%
  cells n°/field: 13 cells n°/field
U87-MG cells [1]; [5]
  % of basal: 143%
  cells n°/field: 15 cells n°/field
U87-MG cells [1]; [6]
  % of basal: 171%
  cells n°/field: 18 cells n°/field
U87-MG cells [1]; 1 nM, T-TEST list value 1
  % of basal (T-TEST list): 133
U87-MG cells [1]; 1 nM, T-TEST list value 2
  % of basal (T-TEST list): 143
U87-MG cells [1]; 1 nM, T-TEST list value 3
  % of basal (T-TEST list): 124
U87-MG cells [1]; 1 nM, T-TEST list value 4
  % of basal (T-TEST list): 124
U87-MG cells [2]; 10 pM, 10 nM (legend: 1 nM), 100 nM, U87-MG, 4, 8, 24 h
  branching point number, in words: concentration-dependent reduction in the branching point number
U87-MG cells [2]; 1 nM, U87-MG
  reduction in branching points: approximately 60%
U87-MG cells [2]; 100 nM, U87-MG, 14 h, serum-free
  VM formation by time-lapse videomicroscopy, in words: inhibited and delayed
U87-MG cells [2]; 100 nM, U87-MG
  reduction in branching points: approximately 60%

## Ac-PS[EELKPEPK]-NH2 (sidechain bridge or staple) [S-uPAcyclin, scrambled control peptide]
U87-MG cells [1]; 10pM
  % of the basal: 169%
U87-MG cells [1]; 1nM
  % of the basal: 183%
U87-MG cells [1]; 100nM
  % of the basal: 160%
U87-MG cells [1]; 10 pM, T-TEST list value 1
  % of basal (T-TEST list): 171
U87-MG cells [1]; 10 pM, T-TEST list value 2
  % of basal (T-TEST list): 152
U87-MG cells [1]; 10 pM, T-TEST list value 3
  % of basal (T-TEST list): 191
U87-MG cells [1]; 10 pM, T-TEST list value 4
  % of basal (T-TEST list): 162
U87-MG cells [1]; 1 nM, T-TEST list value 1
  % of basal (T-TEST list): 171
U87-MG cells [1]; 1 nM, T-TEST list value 2
  % of basal (T-TEST list): 190
U87-MG cells [1]; 1 nM, T-TEST list value 3
  % of basal (T-TEST list): 191
U87-MG cells [1]; 1 nM, T-TEST list value 4
  % of basal (T-TEST list): 181
U87-MG cells [1]; 100nM, T-TEST list value 2
  % of basal (T-TEST list): 158
U87-MG cells [1]; 100nM, T-TEST list value 3
  % of basal (T-TEST list): 158
U87-MG cells [1]; 100nM, T-TEST list value 4
  % of basal (T-TEST list): 162
U87-MG cells [1]; up to 100 nM, U87-MG (Figure 3A)
  effect on migration, in words: ineffective up to 100 nM
U87-MG cells [2]; scrambled control, U87-MG
  reduction in branching points: approximately 20%
